Article PMC6386942, “Bisoprolol, Known to Be a Selective β1-Receptor Antagonist, Differentially but Directly Suppresses IK(M) and IK(erg) in Pituitary Cells and Hippocampal Neurons” (International Journal of Molecular Sciences, 2019)

Columns and labels:
[1] = target: T1, erg-mediated K+ channel (Kerg, KV11) (Rattus norvegicus, UniProt O08962); assay: whole-cell patch clamp of native IK(erg) in GH3 cells; type: cell-based
T1 construct: gene Kcnh2; native channel in pituitary GH3 cells
T1 sequence (O08962 1-1163): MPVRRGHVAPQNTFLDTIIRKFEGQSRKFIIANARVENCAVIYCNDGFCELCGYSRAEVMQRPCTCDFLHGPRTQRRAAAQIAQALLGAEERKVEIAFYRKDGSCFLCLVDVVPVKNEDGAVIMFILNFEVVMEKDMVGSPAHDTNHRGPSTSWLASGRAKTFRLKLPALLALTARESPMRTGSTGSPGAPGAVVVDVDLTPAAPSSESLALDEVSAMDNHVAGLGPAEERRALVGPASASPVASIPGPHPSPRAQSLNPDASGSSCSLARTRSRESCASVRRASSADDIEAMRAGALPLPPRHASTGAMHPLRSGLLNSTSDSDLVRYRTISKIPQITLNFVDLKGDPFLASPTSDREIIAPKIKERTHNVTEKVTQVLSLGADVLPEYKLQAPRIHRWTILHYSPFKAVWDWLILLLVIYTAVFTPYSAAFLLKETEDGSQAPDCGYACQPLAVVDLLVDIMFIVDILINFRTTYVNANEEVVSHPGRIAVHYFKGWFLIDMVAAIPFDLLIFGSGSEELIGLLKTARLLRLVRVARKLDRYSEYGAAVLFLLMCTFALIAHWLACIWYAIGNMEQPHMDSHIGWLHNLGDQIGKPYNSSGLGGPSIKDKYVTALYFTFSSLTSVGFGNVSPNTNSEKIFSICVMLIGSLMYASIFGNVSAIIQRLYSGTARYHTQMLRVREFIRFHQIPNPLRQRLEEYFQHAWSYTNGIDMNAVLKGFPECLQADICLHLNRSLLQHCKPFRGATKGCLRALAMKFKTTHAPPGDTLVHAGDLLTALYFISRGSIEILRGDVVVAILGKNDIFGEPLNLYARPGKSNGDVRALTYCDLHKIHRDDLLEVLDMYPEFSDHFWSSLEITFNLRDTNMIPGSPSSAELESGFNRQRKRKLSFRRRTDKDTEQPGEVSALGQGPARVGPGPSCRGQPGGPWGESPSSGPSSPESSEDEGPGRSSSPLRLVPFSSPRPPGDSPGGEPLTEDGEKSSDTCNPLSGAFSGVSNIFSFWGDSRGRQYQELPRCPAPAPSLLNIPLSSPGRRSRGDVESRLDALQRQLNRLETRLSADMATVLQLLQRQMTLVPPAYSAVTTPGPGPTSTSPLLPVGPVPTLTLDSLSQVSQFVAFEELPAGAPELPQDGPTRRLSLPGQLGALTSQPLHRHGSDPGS

[2] = target: T2, M-type K+ (KM) channel, KCNQ2 (KV7.2)/KCNQ3 (KV7.3) (Rattus norvegicus, UniProt O88943+O88944); assay: whole-cell patch clamp of native IK(M), plus cell-attached single KM channel recordings in GH3 cells; type: cell-based
T2 construct: native channel in pituitary GH3 cells; with KCNQ3 (KV7.3)
T2 sequence (O88943 whole entry): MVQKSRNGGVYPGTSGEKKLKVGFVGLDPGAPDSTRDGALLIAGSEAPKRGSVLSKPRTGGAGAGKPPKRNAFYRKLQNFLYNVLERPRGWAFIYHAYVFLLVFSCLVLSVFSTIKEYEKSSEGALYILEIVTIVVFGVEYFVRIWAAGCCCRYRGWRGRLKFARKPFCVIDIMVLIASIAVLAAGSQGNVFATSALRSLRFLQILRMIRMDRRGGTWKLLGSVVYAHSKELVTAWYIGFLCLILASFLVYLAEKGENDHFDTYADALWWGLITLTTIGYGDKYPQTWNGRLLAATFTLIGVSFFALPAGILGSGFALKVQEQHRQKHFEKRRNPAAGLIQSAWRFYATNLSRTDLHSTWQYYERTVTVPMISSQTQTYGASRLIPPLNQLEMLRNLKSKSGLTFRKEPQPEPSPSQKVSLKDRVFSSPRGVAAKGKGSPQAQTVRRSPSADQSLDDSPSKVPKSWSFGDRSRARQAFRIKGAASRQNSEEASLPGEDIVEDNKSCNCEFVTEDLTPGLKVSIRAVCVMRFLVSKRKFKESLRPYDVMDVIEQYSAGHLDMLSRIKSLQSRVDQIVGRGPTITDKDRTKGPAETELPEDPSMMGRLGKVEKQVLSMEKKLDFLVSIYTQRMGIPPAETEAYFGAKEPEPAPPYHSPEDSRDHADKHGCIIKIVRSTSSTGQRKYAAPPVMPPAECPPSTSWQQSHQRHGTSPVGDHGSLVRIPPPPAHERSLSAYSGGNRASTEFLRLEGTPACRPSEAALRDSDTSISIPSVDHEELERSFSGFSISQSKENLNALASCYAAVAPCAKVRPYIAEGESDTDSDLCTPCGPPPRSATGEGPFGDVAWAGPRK
T2 sequence (O88944 whole entry): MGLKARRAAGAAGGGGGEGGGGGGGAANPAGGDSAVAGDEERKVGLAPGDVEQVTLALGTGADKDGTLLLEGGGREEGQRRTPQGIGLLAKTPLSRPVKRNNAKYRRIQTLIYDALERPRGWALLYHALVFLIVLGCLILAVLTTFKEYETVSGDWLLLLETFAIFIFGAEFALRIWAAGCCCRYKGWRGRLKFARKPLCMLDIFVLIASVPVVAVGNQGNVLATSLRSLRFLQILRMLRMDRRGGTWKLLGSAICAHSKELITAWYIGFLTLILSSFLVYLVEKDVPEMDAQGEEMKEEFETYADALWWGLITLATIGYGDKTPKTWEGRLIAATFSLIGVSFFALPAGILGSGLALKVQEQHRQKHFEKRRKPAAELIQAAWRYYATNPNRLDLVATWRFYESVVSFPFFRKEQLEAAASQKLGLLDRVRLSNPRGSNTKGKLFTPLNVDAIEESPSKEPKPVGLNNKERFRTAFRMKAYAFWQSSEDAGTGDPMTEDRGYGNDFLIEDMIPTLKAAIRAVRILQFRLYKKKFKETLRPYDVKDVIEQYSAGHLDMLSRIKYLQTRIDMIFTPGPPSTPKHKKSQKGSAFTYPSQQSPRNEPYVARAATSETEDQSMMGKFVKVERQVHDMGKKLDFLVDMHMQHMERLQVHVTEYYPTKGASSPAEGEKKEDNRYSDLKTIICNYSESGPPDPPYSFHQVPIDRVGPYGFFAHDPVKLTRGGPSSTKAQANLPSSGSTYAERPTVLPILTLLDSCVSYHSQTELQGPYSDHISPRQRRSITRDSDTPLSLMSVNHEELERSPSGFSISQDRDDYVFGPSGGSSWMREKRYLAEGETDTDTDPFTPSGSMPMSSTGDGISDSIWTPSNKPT

- IC50 [2]: 1.21 µM
SMILES: CC(C)NCC(O)COc1ccc(COCCOC(C)C)cc1 (racemic) [BIS, 1-(propan-2-ylamino)-3-[4-(2-propan-2-yloxyethoxymethyl)phenoxy]propan-2-ol]
- IC50 [1]: 6.42 µM
